Test results: patent publication US11691949B2, “Quinoline sulfonamide compounds and their use as antibacterial agents” (OTAGO INNOVATION LIMITED, priority 2017, dated 2023)
In brackets after ≈: the same amount, converted by molar mass. Structures can show the parent of a compound that is named as a salt. Where two headings read alike, the source gives them in different places.

Tests used:
Format in all cases: cell-based
[1] = system: S. uberis ATCC 19436; experiment: MIC by broth microdilution, S. uberis; details: Streptococcus uberis
Procedure, shortened: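 The MIC against S. uberis ATCC 19436 was the lowest compound concentration showing no growth by OD600 after 24 h at 37° C. with 200 rpm shaking. Cultures grown overnight were adjusted to OD600 ~0.025 so wells held approximately 5×10^5 cfu/mL in THB. Two-fold dilution series were made at a final volume of 200 μl. Media and untreated controls were run in triplicate on each plate.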

[2] = system: S. aureus ATCC 6538; experiment: MIC by broth microdilution, S. aureus; details: Staphylococcus aureus
Procedure, shortened: (§1)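 Overnight cultures diluted to ~5×10^5 cfu/mL final; S. aureus in TSB and CAMHB, E. coli in LB and CAMHB, zinc sulphate to 50 μM final as required; two-fold serial dilutions. MIC = lowest concentration with no growth by OD600 after 24 h, 37° C, 200 rpm. MBC by Miles-Misra drop-plate viability count.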

[3] = system: S. aureus ATCC 6538; experiment: MBC by Miles-Misra drop-plate method, S. aureus; details: Staphylococcus aureus
Procedure: (§2) Antibacterial susceptibility testing was performed in triplicate (biological) by measuring minimum inhibitory concentrations (MICs) by broth microdilution in 96-well flat bottom microtiter plates (ThermoFisher Scientific, New Zealand). S. uberis ATCC 19436, S. aureus ATCC 6538, or E. coli ATCC 10596 cells grown overnight were diluted to an OD600 of approximately 0.025, so that the final concentration of cells in the MIC assay was approximately 5×10^5 cfu/mL in media as follows: S. uberis; Todd Hewitt Broth (THB), S. aureus; Tryptic Soy Broth (TSB) and Cation Adjusted Muller Hinton Broth (CAMHB), and E. coli; Lysogeny Borth (LB) and CAMHB, before being dispensed into microtiter wells. As required additional sterile Zinc Sulphate (Heptahydrate) was supplemented into the media, so the final concentration was 50 μM. Test compounds were added to starting wells and two-fold serial dilutions were undertaken to generate a range of inhibitor concentrations at a final volume of 200 μl. Media and test compound-free (untreated) controls were included in each microtiter plate in triplicate. After 24 h incubation at 37° C. and 200 rpm, the OD600 of wells were read using a Varioskan Flash plate reader (ThermoFisher Scientific, New Zealand). The MIC was reported as the lowest concentration of the test compound for which no growth occurred, as determined by OD600 readings. The minimum bactericidal concentration (MBC) was determined using the Miles-Misra drop-plate method to measure the viability of cells in response to test compound challenge.

[4] = system: S. uberis ATCC 19436; experiment: MBC by Miles-Misra drop-plate method, S. uberis; details: Streptococcus uberis
Procedure: as §2

[5] = system: E. coli ATCC 10596; experiment: MIC by broth microdilution, E. coli; details: Escherichia coli
Procedure, shortened: as §1

[6] = system: E. coli ATCC 10536; experiment: MBC by Miles-Misra drop-plate method, E. coli; details: Escherichia coli
Procedure: as §2

[7] = ATCC19436, No Zinc, read-out: S. uberis ATCC 19436 MIC
[8] = ATCC19436, Zinc (50 μM), read-out: S. uberis ATCC 19436 MIC
[9] = ATCC6538, No Zinc, read-out: S. aureus ATCC 6538 MIC
[10] = ATCC6538, Zinc (50 μM), read-out: S. aureus ATCC 6538 MIC
[11] = ATCC6538, No Zinc, read-out: S. aureus ATCC 6538 MBC
[12] = ATCC6538, Zinc (50 μM), read-out: S. aureus ATCC 6538 MBC
[13] = ATCC19436, No Zinc, read-out: S. uberis ATCC 19436 MBC
[14] = ATCC19436, Zinc (50 μM), read-out: S. uberis ATCC 19436 MBC
[15] = ATCC 10536 / ATCC 10596, No Zinc, read-out: E. coli ATCC 10536 MIC
[16] = ATCC 10536 / ATCC 10596, Zinc (50 μM), read-out: E. coli ATCC 10536 MIC
[17] = ATCC10536, No Zinc, read-out: E. coli ATCC 10536 MBC
[18] = ATCC10536, Zinc (50 μM), read-out: E. coli ATCC 10536 MBC
[19] = ATCC19436, read-out: S. uberis ATCC 19436 MIC, No Zinc
[20] = ATCC19436, read-out: S. uberis ATCC 19436 MIC, Zinc (50 μM)
[21] = ATCC6538, read-out: S. aureus ATCC 6538 MIC, No Zinc
[22] = ATCC6538, read-out: S. aureus ATCC 6538 MIC, Zinc (50 μM)
[23] = ATCC6538, read-out: S. aureus ATCC 6538 MBC, No Zinc
[24] = ATCC6538, read-out: S. aureus ATCC 6538 MBC, Zinc (50 μM)
[25] = ATCC19436, read-out: S. uberis ATCC 19436 MBC, No Zinc
[26] = ATCC19436, read-out: S. uberis ATCC 19436 MBC, Zinc (50 μM)
[27] = ATCC 10536 / ATCC 10596, read-out: E. coli ATCC 10536 MIC, No Zinc
[28] = ATCC 10536 / ATCC 10596, read-out: E. coli ATCC 10536 MIC, Zinc (50 μM)
[29] = ATCC10536, read-out: E. coli ATCC 10536 MBC, No Zinc
[30] = ATCC10536, read-out: E. coli ATCC 10536 MBC, Zinc (50 μM)

Structure (SMILES) | MIC [1, 7] [µg/mL] | MIC [1, 8] [µg/mL] | MIC [2, 9] [µg/mL] | MIC [2, 10] [µg/mL] | MIC [5, 15] [µg/mL] | MIC [5, 16] [µg/mL] | MBC [3, 11] [µg/mL] | MBC [3, 12] [µg/mL] | MBC [4, 13] [µg/mL] | MBC [4, 14] [µg/mL] | MBC [6, 17] [µg/mL] | MBC [6, 18] [µg/mL] | MIC [1, 19] [µg/mL] | MIC [1, 20] [µg/mL] | MIC [2, 21] [µg/mL] | MIC [2, 22] [µg/mL] | MBC [3, 23] [µg/mL] | MBC [3, 24] [µg/mL] | MBC [4, 25] [µg/mL] | MBC [4, 26] [µg/mL] | also measured
N=C(N)NCCNCc1ccc2cccc(NS(=O)(=O)c3ccc(C(F)(F)F)cc3)c2n1 [ZDR143, N-(2-(((2-Guanidinoethyl)amino)methyl)quinolin-8-yl)-4-(trifluoromethyl)benzenesulfonamide di-trifluoroacetate] |  |  |  |  |  |  |  |  |  |  |  |  | 8 (≈ 17.1 µM) | 4 (≈ 8.57 µM) | 8 (≈ 17.1 µM) | 8 (≈ 17.1 µM) | 16 (≈ 34.3 µM) | 16 (≈ 34.3 µM) | 8 (≈ 17.1 µM) | 8 (≈ 17.1 µM) | MIC [5, 27]: 16 µg/mL (≈ 34.3 µM); MIC [5, 28]: 16 µg/mL (≈ 34.3 µM); MBC [6, 29]: 32 µg/mL (≈ 68.6 µM); MBC [6, 30]: 32 µg/mL (≈ 68.6 µM)
N=C(N)NCc1ccc2cccc(NS(=O)(=O)c3ccc(C(F)(F)F)cc3)c2n1 [ZDR187, N-(2-(Guanidinomethyl)quinolin-8-yl)-4-(trifluoromethyl)benzenesulfonamide trifluoroacetate] |  |  |  |  |  |  |  |  |  |  |  |  | 16 | 0.5 | 8 | 8 | 32 | 32 | 16 | 8 | MIC [5, 27]: 32 µg/mL; MIC [5, 28]: 16 µg/mL; MBC [6, 29]: 64 µg/mL; MBC [6, 30]: 16 µg/mL
CN(C)CCCNC(=O)c1ccc2cccc(NS(=O)(=O)c3ccc(C(F)(F)F)cc3)c2n1 [ZDR224, N-(3-(Dimethylamino)propyl)-8-((4-(trifluoromethyl)phenyl)sulfonamido)quinoline-2-carboxamide trifluoroacetate] |  |  |  |  |  |  |  |  |  |  |  |  | 64 | 16 | 128 | 32 | 128 | 32 | 64 | 8 | MIC [5, 27]: 256 µg/mL; MIC [5, 28]: 256 µg/mL; MBC [6, 29]: > 256 µg/mL; MBC [6, 30]: 256 µg/mL
CN(C)CCCNC(=O)CNCc1ccc2cccc(NS(=O)(=O)c3ccc(C(F)(F)F)cc3)c2n1 [ZDR261, N-(3-(Dimethylamino)propyl)-2-(((8-((4-(trifluoromethyl)phenyl)sulfonamido)quinolin-2-yl)methyl)amino)acetamide di-trifluoroacetate] |  |  |  |  |  |  |  |  |  |  |  |  | 32 (≈ 61.1 µM) | 16 (≈ 30.6 µM) | 32 (≈ 61.1 µM) | 32 (≈ 61.1 µM) | 128 (≈ 244 µM) | 64 (≈ 122 µM) | 16 (≈ 30.6 µM) | 16 (≈ 30.6 µM) | MIC [5, 27]: 64 µg/mL (≈ 122 µM); MIC [5, 28]: 64 µg/mL (≈ 122 µM); MBC [6, 29]: > 256 µg/mL; MBC [6, 30]: > 256 µg/mL
O=C(CNCc1ccc2cccc(NS(=O)(=O)c3ccc(C(F)(F)F)cc3)c2n1)NCCN1CCCCC1 [ZDR269, N-(2-(Piperidin-1-yl)ethyl)-2-(((8-((4-(trifluoromethyl)phenyl)sulfonamido)quinolin-2-yl)methyl)amino)acetamide di-trifluoroacetate] |  |  |  |  |  |  |  |  |  |  |  |  | 4 (≈ 7.28 µM) | 8 (≈ 14.6 µM) | 32 (≈ 58.2 µM) | 64 (≈ 116 µM) | 64 (≈ 116 µM) | 128 (≈ 233 µM) | 4 (≈ 7.28 µM) | 16 (≈ 29.1 µM) | MIC [5, 27]: 64 µg/mL (≈ 116 µM); MIC [5, 28]: 64 µg/mL (≈ 116 µM); MBC [6, 29]: 64 µg/mL (≈ 116 µM); MBC [6, 30]: 64 µg/mL (≈ 116 µM)
CN(C)Cc1ccc2cccc(NS(=O)(=O)c3ccc(Cl)cc3Cl)c2n1 [ZDR335, 2,4-Dichloro-N-(2-((dimethylamino)methyl)quinolin-8-yl)benzenesulfonamide] | 64 (≈ 156 µM) | 0.0312 (≈ 0.076 µM) | 32 (≈ 78 µM) | 8 (≈ 19.5 µM) | > 256 | > 256 | > 256 | > 256 | 64 (≈ 156 µM) | 2 (≈ 4.87 µM) | > 256 | > 256 |  |  |  |  |  |  |  |  | 

Continued, in another order:

MIC [1, 7] [µg/mL] | MIC [1, 8] [µg/mL] | MIC [2, 9] [µg/mL] | MIC [2, 10] [µg/mL] | MIC [5, 15] [µg/mL] | MIC [5, 16] [µg/mL] | Structure (SMILES) | MBC [3, 11] [µg/mL] | MBC [3, 12] [µg/mL] | MBC [4, 13] [µg/mL] | MBC [4, 14] [µg/mL] | MBC [6, 17] [µg/mL] | MBC [6, 18] [µg/mL] | MIC [1, 19] [µg/mL] | MIC [1, 20] [µg/mL] | MIC [2, 21] [µg/mL] | MIC [2, 22] [µg/mL] | MBC [3, 23] [µg/mL] | MBC [3, 24] [µg/mL] | MBC [4, 25] [µg/mL] | MBC [4, 26] [µg/mL] | also measured
> 256 | 1 (≈ 2.54 µM) | 16 (≈ 40.6 µM) | 16 (≈ 40.6 µM) | > 256 | > 256 | N/N=C/c1ccc2cccc(NS(=O)(=O)c3ccc(C(F)(F)F)cc3)c2n1 [ZDR127, (E)-N-(2-(Hydrazineylidenemethyl)quinolin-8-yl)-4-(trifluoromethyl)benzenesulfonamide] | > 256 | > 256 | > 256 | 2 (≈ 5.07 µM) | > 256 | > 256 |  |  |  |  |  |  |  |  | 
2 (≈ 3.69 µM) | 0.5 (≈ 0.922 µM) | 2 (≈ 3.69 µM) | 2 (≈ 3.69 µM) | > 256 | > 256 | O=S(=O)(Nc1cccc2ccc(CNc3cc(Cl)cc(Cl)c3O)nc12)c1ccc(C(F)(F)F)cc1 [ZDR167, N-(2-(((3,5-Dichloro-2-hydroxyphenyl)amino)methyl)quinolin-8-yl)-4-(trifluoromethyl)benzenesulfonamide] | 8 (≈ 14.8 µM) | 8 (≈ 14.8 µM) | 8 (≈ 14.8 µM) | 0.5 (≈ 0.922 µM) | > 256 | > 256 |  |  |  |  |  |  |  |  | 
8 (≈ 15.4 µM) | 1 (≈ 1.93 µM) | 8 (≈ 15.4 µM) | 4 (≈ 7.71 µM) | 256 (≈ 494 µM) | 256 (≈ 494 µM) | O=[N+]([O-])c1ccc(O)c(NCc2ccc3cccc(NS(=O)(=O)c4ccc(C(F)(F)F)cc4)c3n2)c1 [ZDR170, N-(2-(((2-Hydroxy-5-nitrophenyl)amino)methyl)quinolin-8-yl)-4-(trifluoromethyl)benzenesulfonamide] | 128 (≈ 247 µM) | 128 (≈ 247 µM) | 16 (≈ 30.9 µM) | 2 (≈ 3.86 µM) | > 256 | > 256 |  |  |  |  |  |  |  |  | 
8 (≈ 16.9 µM) | 0.5 (≈ 1.06 µM) | 4 (≈ 8.45 µM) | 4 (≈ 8.45 µM) | > 256 | > 256 | O=S(=O)(Nc1cccc2ccc(CNc3ccccc3O)nc12)c1ccc(C(F)(F)F)cc1 [ZDR171, N-(2-(((2-Hydroxyphenyl)amino)methyl)quinolin-8-yl)-4-(trifluoromethyl)benzenesulfonamide] | 16 (≈ 33.8 µM) | 32 (≈ 67.6 µM) | 8 (≈ 16.9 µM) | 0.5 (≈ 1.06 µM) | > 256 | > 256 |  |  |  |  |  |  |  |  | 
